These results are taken from ChEMBL document CHEMBL4321837, “Discovery of Potent and Orally Effective Dual Janus Kinase 2/FLT3 Inhibitors for the Treatment of Acute Myelogenous Leukemia and Myeloproliferative Neoplasms” (J Med Chem, 2019).

Data set [1] concerns the target Vascular endothelial growth factor receptor 3 (Homo sapiens, UniProt P35916). The data set is described as follows: Inhibition of recombinant human FLT4 (800 to 1297 residues) using poly(Glu:Tyr) as substrate incubated for 30 mins in presence of [gamma33P]-ATP by scintillation counting based radiometry assay.
The subject of data set [2] is MV4-11. The data set is described as follows: Induction of cell cycle arrest in human MV4-11 cells assessed as accumulation at G0/G1 phase at 0.005 uM after 24 hrs by propidium iodide staining based flow cytometry analysis (reference value: 54.49%). It counts as functional. (In flow cytometry, cells or beads pass a laser one at a time.)
Data set [3] can be described thus: Toxicity in NOD/SCID mouse xenografted with human SET2 cells overexpressing JAK2 V617F mutant assessed as body weight at 30 to 60 mg/kg, po qd for 18 days. The format is organism-based. The note with it: in vivo, 432 h. For orientation: In xenograft studies the graft and the host belong to different species.
For data set [4], the species on record is Homo sapiens. The data set is described as follows: Inhibition of JAK2 V617F mutant/FLT3 in human SET2 cells assessed as reduction in STAT5 phosphorylation at 0.2 uM after 2 hrs by Western blot analysis. It counts as cell-based.
A short description of data set [5]: Toxicity in NOD/SCID mouse xenografted with FLT3-ITD-positive human MV4-11 cells assessed as animal survival at 30 to 60 mg/kg, po qd for 14 days. The note with it: in vivo. It counts as organism-based.
A short description of data set [6]: Half life in monkey liver microsomes. The conditions noted are these: rhesus monkey. The format is ADME, Macaca mulatta, Microsome.
For data set [7], the species on record is Homo sapiens. The data set is described as follows: Inhibition of JAK2 V617F mutant/FLT3 in human SET2 cells assessed as reduction in JAK2 phosphorylation at 0.2 uM after 2 hrs by Western blot analysis. The format is cell-based. A general note: In western blotting, separated proteins are transferred to a membrane and probed.
In data set [8] the test system is MV4-11. The data set is described as follows: Induction of cell cycle arrest in human MV4-11 cells assessed as accumulation at G2/M phase at 0.005 uM after 24 hrs by propidium iodide staining based flow cytometry analysis (reference value: 15.4%). It counts as functional.
Data set [9] is described as follows: Anti-myelofibrosis activity against mouse BAF3(transformed) cells harboring with JAK2 V617F mutant allografted in NOD/SCID mouse assessed as reduction in liver weight at 60 mg/kg, po qd for 20 days measured on day 25 relative to control. It counts as functional.
In data set [10] the test system is MV4-11. Put plainly: Induction of apoptosis in human MV4-11 cells assessed as early apoptotic cells at 0.05 uM after 24 hrs by Annexin V FITC/PI staining based flow cytometry analysis (reference value: 2.14%). The format is functional.
Data set [11] in a line: Toxicity in NOD/SCID mouse xenografted with FLT3-ITD-positive human MV4-11 cells assessed as body weight at 30 to 60 mg/kg, po qd for 14 days. The note with it: in vivo, 336 h. The format is organism-based.
The next data set relates to IEC-6. The data set is described as follows: Cytotoxicity against rat IEC-6 cells assessed as cell viability after 72 hrs by MTT assay. The format is cell-based. The note with it: iec-6, 72 h.
Data set [12] relates to MV4-11. The data set is described as follows: Induction of apoptosis in human MV4-11 cells assessed as late apoptotic cells at 0.2 uM after 24 hrs by Annexin V FITC/PI staining based flow cytometry analysis (reference value: 1.38%). The format is functional.
For data set [13], the system named is MV4-11. The data set is described as follows: Induction of apoptosis in human MV4-11 cells assessed as viable cells at 0.4 uM after 24 hrs by Annexin V FITC/PI staining based flow cytometry analysis (reference value: 96.3%). The format is functional. The conditions noted are these: MV4-11, 24 h, read-out: Activity.
The subject of data set [14] is MV4-11. The data set is described as follows: Induction of apoptosis in human MV4-11 cells assessed as late apoptotic cells at 1.6 uM after 24 hrs by Annexin V FITC/PI staining based flow cytometry analysis (reference value: 1.38%). The format is functional.
Data set [15] in a line: Terminal elimination half life in Sprague-Dawley rat at 5 mg/kg, po measured up to 24 hrs by LC/MS/MS analysis. The format is ADME, organism-based. The conditions noted are these: in vivo, 24 h.
Data set [16] has as its system MV4-11. The data set is described as follows: Induction of apoptosis in human MV4-11 cells assessed as early apoptotic cells at 1.6 uM after 24 hrs by Annexin V FITC/PI staining based flow cytometry analysis (reference value: 2.14%). The format is functional.
The subject of a further data set is HUVEC. Put plainly: Cytotoxicity against HUVEC assessed as cell viability after 72 hrs by MTT assay. The format is cell-based. The conditions noted are these: human.
A short description of data set [17]: Tmax in Sprague-Dawley rat at 5 mg/kg, po measured up to 24 hrs by LC/MS/MS analysis. The format is ADME, organism-based. The conditions noted are these: in vivo, 24 h.
In another data set the test system is HCT-116. Put plainly: Antiproliferative activity against human HCT116 cells assessed as reduction in cell growth after 72 hrs by MTT assay. The format is functional, cell-based.
The target in data set [18] is T1, Tyrosine-protein kinase JAK3 (Homo sapiens) (UniProt P52333).
T1 sequence (whole entry): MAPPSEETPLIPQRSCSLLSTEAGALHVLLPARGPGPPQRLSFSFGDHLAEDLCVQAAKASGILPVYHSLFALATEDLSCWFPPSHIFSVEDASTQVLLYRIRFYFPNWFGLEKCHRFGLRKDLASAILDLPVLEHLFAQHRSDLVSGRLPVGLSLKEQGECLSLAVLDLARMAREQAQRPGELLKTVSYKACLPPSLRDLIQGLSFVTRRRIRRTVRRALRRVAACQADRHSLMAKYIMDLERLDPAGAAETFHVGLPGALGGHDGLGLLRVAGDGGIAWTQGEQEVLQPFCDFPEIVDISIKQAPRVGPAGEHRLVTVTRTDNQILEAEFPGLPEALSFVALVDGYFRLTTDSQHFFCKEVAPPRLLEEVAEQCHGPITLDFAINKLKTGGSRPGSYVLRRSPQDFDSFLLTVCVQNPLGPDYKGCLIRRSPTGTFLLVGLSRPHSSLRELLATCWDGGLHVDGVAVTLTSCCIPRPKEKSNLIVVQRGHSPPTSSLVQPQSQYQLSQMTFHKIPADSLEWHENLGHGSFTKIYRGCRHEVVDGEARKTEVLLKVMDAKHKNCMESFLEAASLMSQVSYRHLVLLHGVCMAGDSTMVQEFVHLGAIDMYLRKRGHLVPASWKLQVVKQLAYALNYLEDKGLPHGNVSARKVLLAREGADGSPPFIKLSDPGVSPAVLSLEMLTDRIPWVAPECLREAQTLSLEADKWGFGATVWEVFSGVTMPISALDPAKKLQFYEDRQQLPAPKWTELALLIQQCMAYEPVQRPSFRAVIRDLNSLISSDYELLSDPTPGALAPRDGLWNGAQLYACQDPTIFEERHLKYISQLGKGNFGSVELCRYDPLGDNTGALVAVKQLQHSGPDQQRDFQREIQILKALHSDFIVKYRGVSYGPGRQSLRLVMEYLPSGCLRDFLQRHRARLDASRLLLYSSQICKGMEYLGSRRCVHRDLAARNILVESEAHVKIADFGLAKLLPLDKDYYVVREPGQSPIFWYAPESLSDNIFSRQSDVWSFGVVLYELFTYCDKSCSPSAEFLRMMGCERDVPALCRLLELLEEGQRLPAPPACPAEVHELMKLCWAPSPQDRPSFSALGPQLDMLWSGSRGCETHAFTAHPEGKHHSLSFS
Put plainly: Inhibition of human JAK3 (781 to end residues) assessed as residual activity at 100 nM using GGEEEEYFELVKK as substrate after 40 mins in presence of [gamma33P]-ATP by scintillation counting based radiometric assay relative to control.

For data set [19], the system named is MV4-11. The data set is described as follows: Induction of apoptosis in human MV4-11 cells assessed as early apoptotic cells at 0.8 uM after 24 hrs by Annexin V FITC/PI staining based flow cytometry analysis (reference value: 2.14%). The format is functional.
Data set [20] can be described thus: Half life in dog liver microsomes. It counts as ADME, Canis lupus familiaris, Microsome.

The source made the active and inactive calls.

Chain of Vascular endothelial growth factor receptor 3 (P35916 whole entry, the tested form may be a part): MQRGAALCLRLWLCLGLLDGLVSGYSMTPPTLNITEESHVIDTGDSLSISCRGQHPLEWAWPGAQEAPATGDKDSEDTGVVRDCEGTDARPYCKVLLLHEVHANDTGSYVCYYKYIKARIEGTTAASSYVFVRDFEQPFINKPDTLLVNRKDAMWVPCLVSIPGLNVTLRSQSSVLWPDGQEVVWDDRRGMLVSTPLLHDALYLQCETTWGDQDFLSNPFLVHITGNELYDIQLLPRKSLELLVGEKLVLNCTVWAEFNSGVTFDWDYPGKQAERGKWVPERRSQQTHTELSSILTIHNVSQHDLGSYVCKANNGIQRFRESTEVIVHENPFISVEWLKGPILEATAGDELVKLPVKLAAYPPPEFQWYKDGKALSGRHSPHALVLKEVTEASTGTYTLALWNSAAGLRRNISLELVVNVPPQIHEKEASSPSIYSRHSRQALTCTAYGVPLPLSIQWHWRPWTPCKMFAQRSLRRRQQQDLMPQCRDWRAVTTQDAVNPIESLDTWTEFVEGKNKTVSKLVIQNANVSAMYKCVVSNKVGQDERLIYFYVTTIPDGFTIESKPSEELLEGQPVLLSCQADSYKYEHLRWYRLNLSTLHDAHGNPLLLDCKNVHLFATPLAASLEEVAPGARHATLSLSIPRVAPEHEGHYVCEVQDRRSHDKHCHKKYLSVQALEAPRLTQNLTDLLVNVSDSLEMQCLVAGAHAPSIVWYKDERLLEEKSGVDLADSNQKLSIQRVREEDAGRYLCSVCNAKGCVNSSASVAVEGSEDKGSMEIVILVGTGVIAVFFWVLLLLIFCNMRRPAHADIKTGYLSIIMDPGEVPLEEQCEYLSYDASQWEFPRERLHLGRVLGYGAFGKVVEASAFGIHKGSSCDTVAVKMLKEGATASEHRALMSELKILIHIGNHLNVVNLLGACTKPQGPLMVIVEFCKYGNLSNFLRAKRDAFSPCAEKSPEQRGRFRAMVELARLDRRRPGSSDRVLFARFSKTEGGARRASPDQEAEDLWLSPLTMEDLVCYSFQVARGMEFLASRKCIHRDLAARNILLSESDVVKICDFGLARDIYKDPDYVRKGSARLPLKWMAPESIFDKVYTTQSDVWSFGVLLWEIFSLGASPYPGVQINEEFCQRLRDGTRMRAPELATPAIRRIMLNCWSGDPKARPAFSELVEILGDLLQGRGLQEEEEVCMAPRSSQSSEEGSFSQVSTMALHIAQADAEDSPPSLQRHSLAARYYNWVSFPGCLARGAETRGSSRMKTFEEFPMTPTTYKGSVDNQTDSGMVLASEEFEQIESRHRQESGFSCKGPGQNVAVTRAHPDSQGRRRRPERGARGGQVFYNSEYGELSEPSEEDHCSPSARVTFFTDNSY

`Cc1cnc(Nc2ccc(N3CCC(N(C)CCO)CC3)c(F)c2)nc1-c1cnn(C(C)C)c1`: the IC50 in data set [1] turned out to be 8 nM. The Activity with MV4-11 [2] is given as 55.92%; in data set [3], “Non-Toxic”; with MV4-11 [8], 15.4%; in the data set on MV4-11 [10] it was 5.53%; in data set [11], “Non-Toxic”; in the data set with IEC-6, “Non-Toxic”. Also, the Activity is 9.88% in the data set on MV4-11 [12]; 40.9% in the data set with MV4-11 [14]; 33.6% in the data set with MV4-11 [16]; “Non-Toxic” with HUVEC; 36% in data set [18]; 23.4% with MV4-11 [19]. Further, the inhibition result in the data set filed under Homo sapiens [4] and in the data set filed under Homo sapiens [7] was “Active” throughout. In addition, in [5], the survival at 336 h was determined as 100%. In addition, the half-life stood at 23.1 h in data set [6] and 3.12 h in data set [20]. For the same molecule, the inhibition in vivo at 60 mg/kg in [9] is 94.3%. The viability at 0.4 µM with MV4-11 [13] was determined as 51.2%. The “beta t1/2” value in data set [15] worked out at 4.1 h. Also, in data set [17], the Tmax is 1.5 h. Besides, the outcome with HCT-116 was Active.

The IC50 is the concentration needed to halve the response being measured. Usually half-life stands for the time needed for the level to fall by half in the phase considered. In general, inhibition in vivo refers to the share of the control response that was lost under treatment. For orientation: Tmax means the time at which the peak concentration occurs.
